Test results published in patent US20240390383A1, “DIOXAZINES AND THEIR USE IN TREATMENT OF GBA-RELATED DISEASES” (ZEVRA DENMARK A/S, priority 2021, published 2024).
Where “and” joins values, the source holds several entries; their conditions need not be identical. Equal values may be shown once.

Target: T1, GCase (GBA) in human fibroblast cell line GM10915 harboring the L444P GBA mutation (Homo sapiens, UniProt P04062, L483P)
T1 construct: Human fibroblast cell line GM10915 harboring the L444P GBA mutation; host or cells: GM10915 human fibroblasts
T1 sequence (P04062 40-536 L483P): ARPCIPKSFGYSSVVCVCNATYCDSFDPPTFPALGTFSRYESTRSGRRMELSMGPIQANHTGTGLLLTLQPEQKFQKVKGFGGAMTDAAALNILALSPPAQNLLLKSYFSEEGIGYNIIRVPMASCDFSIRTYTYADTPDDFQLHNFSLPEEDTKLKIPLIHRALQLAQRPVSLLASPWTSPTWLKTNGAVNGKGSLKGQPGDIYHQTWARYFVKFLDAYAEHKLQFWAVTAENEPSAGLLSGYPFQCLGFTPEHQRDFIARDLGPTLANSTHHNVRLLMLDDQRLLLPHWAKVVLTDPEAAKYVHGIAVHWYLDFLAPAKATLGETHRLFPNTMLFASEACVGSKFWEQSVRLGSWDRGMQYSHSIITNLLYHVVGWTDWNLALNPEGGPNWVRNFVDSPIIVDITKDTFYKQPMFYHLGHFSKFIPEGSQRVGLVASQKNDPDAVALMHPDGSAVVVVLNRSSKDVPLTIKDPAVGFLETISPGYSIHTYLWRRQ
Assay: GCase activity assay (4-MUG substrate, normalised to crystal violet staining) in L444P GBA fibroblasts
Format: cell-based
Conditions: 5 days exposure; for GBA EC1.5: concentration giving 150% GCase activity (1.5-fold induction), 8-point dose range; for Emax / GBA Emax: maximum percent GCase activity relative to untreated cells in the dose range tested
Procedure, shortened: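 Patient fibroblasts GM10915 (L444P GBA) exposed to compounds for five days over an 8-point range, with fresh dosing every 2–3 days. Intact-cell GCase measured with 2.5 mM 4-MUG at pH 4.0 for 23 h at 37 °C (ex/em 365/445 nm), normalised to crystal violet, as % of PBS basal; Emax is the maximum reached.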

Row | GBA EC1.5 | Emax [%] | GBA Emax | SMILES
1 | 50 µM | 106 | – | c1ccc(N2CCC(C3=NOCC(CN4CCCCC4)O3)CC2)nc1 (stereo not drawn) [compound 678]
2 | 18 µM | 312 | – | CN1CCN(CCC2=NOCC(CN3CCCCC3)O2)CC1 (racemic) [compound 823, rac-3-(2-(4-methylpiperazin-1-yl)ethyl)-5-(piperidin-1-ylmethyl)-5,6-dihydro-1,4,2-dioxazine]
3 | 18 µM | 253 | – | CN1CCC(C2=NOCC(CN3CCCCC3)O2)C1 (racemic) [compound 546, rac-3-(1-methylpyrrolidin-3-yl)-5-(piperidin-1-ylmethyl)-5,6-dihydro-1,4,2-dioxazine]
4 | 7 µM | 282 | – | CC1ON=C(C2(C)CCNCC2)OC1CN1CCCCC1 (racemic) [compound 531, rac-6-methyl-3-(4-methylpiperidin-4-yl)-5-(piperidin-1-ylmethyl)-5,6-dihydro-1,4,2-dioxazine]
5 | 40 µM | 183 | – | COc1cncc(CNCCC2=NOCC(CN3CCCCC3)O2)c1 (racemic) [compound 806, rac-N-((5-methoxypyridin-3-yl)methyl)-2-(5-(piperidin-1-ylmethyl)-5,6-dihydro-1,4,2-dioxazin-3-yl)ethan-1-amine]
6 | 11 µM | 247 | – | CN1CCC(C2=NOCC(CN3CCCCC3)O2)C1 (stereo not drawn) [compound 629]
7 | 14 µM | 166 | – | CC1(C2=NOCC(CN3CCNC(C(F)(F)F)CC3)O2)CCNCC1 (racemic) [compound 500, rac-3-(4-methylpiperidin-4-yl)-5-((5-(trifluoromethyl)-1,4-diazepan-1-yl)methyl)-5,6-dihydro-1,4,2-dioxazine]
8 | 4 µM and 5 µM | – | 216% and 272% | C1CCN(C[C@@H]2CON=C([C@]34CCC[C@H]3NCC4)O2)CC1 (relative stereo) [compound 589, (rel-R)-3-((rel-trans-3aS,6aR)-hexahydrocyclopenta[b]pyrrol-3a(1H)-yl)-5-(piperidin-1-ylmethyl)-5,6-dihydro-1,4,2-dioxazine]
9 | 15 µM | 181 | – | CC(C)(C1=NOCC(CN2CCCCC2)O1)C1CCNCC1 (racemic) [compound 477, rac-5-(piperidin-1-ylmethyl)-3-(2-(piperidin-4-yl)propan-2-yl)-5,6-dihydro-1,4,2-dioxazine di-2,2,2-trifluoroacetate]
10 | 10 µM | 276 | – | CC1ON=C(C2CCN(C(C)C)C2)OC1CN1CCCCC1 (racemic) [compound 621, rac-3-(1-isopropylpyrrolidin-3-yl)-6-methyl-5-(piperidin-1-ylmethyl)-5,6-dihydro-1,4,2-dioxazine]
11 | 9 µM | 241 | – | C1CCN(CC2CON=C([C@]34CCN[C@H]3CCOC4)O2)CC1 (relative stereo) [compound 462, rac-rel-trans(3aR,7aS)-3a-(5-(piperidin-1-ylmethyl)-5,6-dihydro-1,4,2-dioxazin-3-yl)octahydropyrano[4,3-b]pyrrole di-2,2,2-trifluoroacetate]
12 | 50 µM | 135 | – | c1csc(N2CCC(C3=NOCC(CN4CCCCC4)O3)CC2)n1 (stereo not drawn) [compound 635]
13 | 13 µM | – | 274% | CC1(C2=NOC[C@@H](CN3CCCCC3)O2)CCNCC1 [compound 892]
14 | 50 µM | 123 | – | Cn1ccnc1CC1(C2=NOCC(CN3CCCCC3)O2)CCNCC1 (stereo not drawn) [compound 607]
15 | 40 µM | 159 | – | C1CCN(CC2CON=C(C34CCCNCC3C4)O2)CC1 (racemic) [compound 519, rac-3-(3-azabicyclo[5.1.0]octan-7-yl)-5-(piperidin-1-ylmethyl)-5,6-dihydro-1,4,2-dioxazine]
16 | 7 µM | 296 | – | CC1(C2=NOCC(CN3CCCCC3)O2)CCNCC1 (single isomer, unassigned) [compound 567]
17 | 26 µM | 299 | – | NC1CCC(C2=NOCC(CN3CCCCC3)O2)CC1 (racemic) [compound 611, rac-4-(5-(piperidin-1-ylmethyl)-5,6-dihydro-1,4,2-dioxazin-3-yl)cyclohexan-1-amine]
18 | 5 µM | 214 | – | C[C@@]1(C2=NOC[C@H](CN3CCCCC3)O2)CCCNC1 [compound 882]
19 | 27 µM | 159 | – | c1cncc(CC2(C3=NOCC(CN4CCCCC4)O3)CCNCC2)c1 (racemic) [compound 550, rac-5-(piperidin-1-ylmethyl)-3-(4-(pyridin-3-ylmethyl)piperidin-4-yl)-5,6-dihydro-1,4,2-dioxazine]

Row | GBA EC1.5 | Emax [%] | GBA Emax | SMILES
20 | 50 µM | 117 | – | O[C@@H]1CC[C@@H](C2=NOCC(CN3CCCCC3)O2)C1 (stereo partly drawn) [compound 704]
21 | 50 µM | 102 | – | CN(C)C(=O)N1CCC(C2=NOCC(CN3CCCCC3)O2)C1 (stereo not drawn) [compound 675]
22 | 50 µM | 111 | – | NC(=O)N1CCCC(C2=NOCC(CN3CCCCC3)O2)C1 (stereo not drawn) [compound 717]
23 | 50 µM | 111 | – | CN1CCCC1C1=NOCC(CN2CCCCC2)O1 (stereo not drawn) [compound 695]
24 | 8 µM | 168 | – | C1CCN(CCC2=NOC[C@@H](CN3CCCCC3)O2)CC1 [compound 890]
25 | 29 µM | 151 | – | CN(C)C(=O)[C@@]12CC[C@]1(C1=NOCC(CN3CCCCC3)O1)CNC2 (relative stereo) [compound 765, rac-rel-(1R,5S)—N,N-dimethyl-5-(5-(piperidin-1-ylmethyl)-5,6-dihydro-1,4,2-dioxazin-3-yl)-3-azabicyclo[3.2.0]heptane-1-carboxamide]
26 | 50 µM | 100 | – | FC(F)(F)CN1CCCC(CC2=NOCC(CN3CCCCC3)O2)C1 (stereo not drawn) [compound 587]
27 | 4 µM and 3 µM | – | 211% and 273% | C1CCN(C[C@@H]2CON=C([C@]34CCC[C@H]3NCC4)O2)CC1 (single isomer, unassigned) [compound 590]
28 | 11 µM | 259 | – | CN(C)CCC1=NOCC(CN2CCCCC2)O1 (racemic) [compound 779, rac-N,N-dimethyl-2-(5-(piperidin-1-ylmethyl)-5,6-dihydro-1,4,2-dioxazin-3-yl)ethan-1-amine]
29 | 19 µM | 336 | – | C1CCN(CC2CON=C(C3(C4CCNCC4)CC3)O2)CC1 (racemic) [compound 521, rac-5-(piperidin-1-ylmethyl)-3-(1-(piperidin-4-yl)cyclopropyl)-5,6-dihydro-1,4,2-dioxazine]
30 | 36 µM | 232 | – | CC1(C2=NOCC(CN3CCCCC3)O2)CNC1 (racemic) [compound 549, rac-3-(3-methylazetidin-3-yl)-5-(piperidin-1-ylmethyl)-5,6-dihydro-1,4,2-dioxazine]
31 | 37 µM | 168 | – | COC1CNC(C)(C2=NOCC(CN3CCCCC3)O2)C1 (racemic) [compound 565, rac-3-(4-methoxy-2-methylpyrrolidin-2-yl)-5-(piperidin-1-ylmethyl)-5,6-dihydro-1,4,2-dioxazine]
32 | 7 µM | 190 | – | CN(C)CC1(C2=NOCC(CN3CCCCC3)O2)CCN(C)C1 (racemic) [compound 826, rac-N,N-dimethyl-1-(1-methyl-3-(5-(piperidin-1-ylmethyl)-5,6-dihydro-1,4,2-dioxazin-3-yl)pyrrolidin-3-yl)methanamine]
33 | 50 µM | 120 | – | CN1CCC(C2=NOCC(CN3CCCCC3)O2)CC1=O (stereo not drawn) [compound 676]
34 | 50 µM | 112 | – | NC(=O)N1CCC(C2=NOCC(CN3CCCCC3)O2)CC1 (stereo not drawn) [compound 639]
35 | 1 µM | 147 | – | CC(C)c1ccc(CC2(C3=NOCC(CN4CCCCC4)O3)CCNCC2)cn1 (stereo not drawn) [compound 538]
36 | 4.3 µM | 201 | – | CN1CCCC(C2=NOCC(CN3CCCCC3)O2)C1 (racemic) [compound 648, rac-3-(1-methylpiperidin-3-yl)-5-(piperidin-1-ylmethyl)-5,6-dihydro-1,4,2-dioxazine]
37 | 16 µM | 274 | – | CN1C[C@@H](O)C[C@H](C2=NOCC(CN3CCCCC3)O2)C1 (relative stereo) [compound 724, rac-rel-(3R,5R)-1-methyl-5-(5-(piperidin-1-ylmethyl)-5,6-dihydro-1,4,2-dioxazin-3-yl)piperidin-3-ol]
38 | 9 µM | 212 | – | c1cn2c(n1)CC(C1=NOCC(CN3CCCCC3)O1)CC2 (racemic) [compound 660, rac-5-(piperidin-1-ylmethyl)-3-(5,6,7,8-tetrahydroimidazo[1,2-a]pyridin-7-yl)-5,6-dihydro-1,4,2-dioxazine]

Row | SMILES | GBA EC1.5 | Emax [%] | GBA Emax
39 | CN1[C@@H]2CC[C@H]1CN(CC1CON=C(C3(C)CCNCC3)O1)C2 (stereo partly drawn) [compound 603] | 50 µM | 102 | –
